Data reported in patent US20070293443A1, “Composition for Accelerating Calcium Absorption” (Good Shusei Co. Ltd, priority 2004, published 2007).
“Also recorded” adds a separate entry of the source.

Tests used:
[1] = tested on: dietary calcium absorption; experiment: Dietary calcium absorption accelerating effect, blood calcium level after oral calcium carbonate with test substance (Example 1); assay type: in vivo; conditions: male ICR mice, oral 5 mmol/kg calcium carbonate alone or with test substance (1.25-10.0 mmol/kg), up to 4 hours after administration
Excerpt: For the experiment, 11-weeks old male ICR mice were used after overnight fasting. During the test period, the mice were given deionized water only. […] The doses of L-arabonic acid administered in combination were 1.25 mmol/kg (Group II), 2.5 mmol/kg (Group III), 5.0 mmol/kg (Group IV), and 10.0 mmol/kg (Group V), and the doses of D-gluconic acid were 2.5 mmol/kg (Group VI), 5.0 mmol/kg (Group VII), and 10.0 mmol/kg (Group VIII). […] The blood calcium level was quantified by a chelate colorimetric method (ortho-cresolphthalein complexone (OCPC) method). The obtained data were analyzed by a paired t-test, and a risk ratio of 5% or less was considered as significant difference.

[2] = Blood calcium level after administration of calcium L-arabonate (Example 5); assay type: in vivo; conditions: male ICR mice, oral calcium L-arabonate 1.25, 2.5, 5.0 mmol/kg or calcium carbonate 5 mmol/kg, up to 4 hours
Procedure: For the experiment, 11-weeks old male ICR mice were used after overnight fasting. During the test period, the mice were given deionized water only. The mice were divided into four groups (Groups I to IV, 5 animals in each group), and the test substance was orally administered as a solution in deionized water. […] The blood calcium level was quantified by a chelating calorimetric method (ortho-cresolphthalein complexone (OCPC) method). The obtained data were analyzed by a paired t-test, and a risk ratio of 5% or less was considered as significant difference.

[3] = tested on: dietary calcium absorption; experiment: Dietary calcium absorption accelerating effect of sodium L-arabonate in mice fed calcium-deficient diet (Example 2); assay type: in vivo; conditions: for Ca level in blood, 0 min: 0 min (before administration); for Ca level in blood, 0 min / Ca level in blood, 2 hrs / Ca level in blood, 4 hrs: oral 5 mmol/kg calcium carbonate alone (Group I) or with 5 mmol/kg sodium L-arabonate (Group II), n = 4; for Ca level in blood, 2 hrs: 2 hrs after administration; for Ca level in blood, 4 hrs: 4 hrs after administration; for change in blood calcium level: up to 4 hours after oral administration, mice on calcium-deficient diet
Procedure: Eight-week old male ICR mice were used and fed calcium-deficient diet and deionized water for one week. The mice were fasted overnight before the test, and were given deionized water only during the test period. […] The obtained data were analyzed by a paired t-test, and a risk ratio of 5% or less was considered as significant difference.

[4] = tested on: experimental osteoporosis induced by calcium-deficient diet; experiment: Experimental osteoporosis induced by calcium-deficient diet (Example 7); assay type: in vivo, mice; conditions: dose 2.5 mmol/kg oral daily
Procedure: (§1) Six-week old female ICR mice were divided into five groups (Groups I to V, 10 animals in each group), and fed calcium-deficient feed (calcium carbonate-free AIN 93M, Oriental Yeast Co., Ltd.) for 4 weeks to induce osteoporosis condition. Calcium L-arabonate was dissolved in water and orally administered daily in a dose of 1.25 mmol/kg (Group II) or 2.5 mmol/kg (Group III). The control group for pathological condition (Group I) was administered with water in the same manner. As a comparative group, a group administered with calcium D-gluconate (dose 2.5 mmol/kg (Group IV)) was provided. A normal control group (Group V) was separately provided and was given the normal feed (AIN 93M, Oriental Yeast Co., Ltd.). After administering the test substance on the second week and fourth week of initiation of the test, the animals were transferred to a metabolic cage, and feces were collected for 24 hours. The amount of calcium and phosphorus excreted in the feces were measured, and the absorption rates of ingested calcium and phosphorous in the digestive tract were determined. After completion of the test period, the animals of the respective groups were sacrificed to remove both femurs and tibiae. The femurs and tibiae were removed muscles etc., then immersed in 70% ethanol overnight, and dried at 60° C. for 24 hours to be used as samples for analysis. The measurement items were dry weight, ash content, calcium content, and phosphorus content. The ash content was measured by an ashing method at 550° C. for 18 hours, the calcium content was measured by an OCPC method (Calcium C-Test Wako, Wako Pure Chemical Industries, Ltd.), and the phosphorus content was measured by a p-methylaminophenol reduction method (Phospho C-Test Wako, Wako Pure Chemical Industries, Ltd.). The obtained data were analyzed by ANOVA and the Dunnett's method, and a risk ratio of 5% or less was considered as significant difference.

[5] = tested on: experimental osteoporosis induced by combination of ovary excision and calcium-deficient diet; experiment: Experimental osteoporosis due to combination of ovary excision and calcium-deficient diet (Example 8); assay type: in vivo, mice; conditions: dose 2.5 mmol/kg oral daily
Procedure: as §1
Six-weeks old female ICR mice excised their ovaries were divided into 5 groups (Groups I to V, 10 animals in each group), and fed calcium-deficient feed (calcium carbonate-free AIN 93M, Oriental Yeast Co., Ltd.) for 4 weeks to induce osteoporosis condition. Calcium L-arabonate was dissolved in water, and orally administered daily in a dose of 1.25 mmol/kg (Group II) or 2.5 mmol/kg (Group III). The control group for pathological condition (Group I) was administered with water in the same manner. As a comparative group, a group administered with calcium D-gluconate (dose 2.5 mmol/kg (Group IV)) was provided. Also, a group excised ovaries but given with normal feed (AIN 93M, Oriental Yeast Co., Ltd.) (Group V) was separately provided. The measurement of the absorption rate of calcium in the digestive tract, and the analysis of femur and tibia were performed in the same manner as in Example 7.

[6] = Kinetics of L-arabonic acid in the digestive tract of rat (Example 3); assay type: in vivo
Procedure: For the experiment, 7 to 11-weeks old male Wistar rats were used after overnight fasting. After orally administering 5 mmol/kg of L-arabonic acid, the animals were entered into a metabolic cage, and were sacrificed after 2 hours, after 6 hours, and after 24 hours, to remove the digestive tracts. The contents in each site of the digestive tract were recovered respectively, and the amount of unaltered L-arabonic acid was quantified by the HPLC method. The entire amounts of urine and feces up to the respective time points were recovered, and the amounts of L-aranobic acid were quantified in the same manner. During the test period, the animals were given deionized water only.

[7] = tested on: mice; experiment: Single oral administration safety test, LD50; assay type: in vivo
Excerpt: As a result of a single oral test using mice, it was confirmed that the LD50 value of L-arabonic acid was about 10 g/kg, and thus L-arabonic acid was a material having high safety.
While it was discovered in Example 5 that the calcium moiety of calcium L-arabonate used in the invention was extremely readily-absorbable, it was shown in Example 6 that the L-arabonic acid moiety was extremely poorly absorbed in the digestive tract.

O=C(O)[C@H](O)[C@@H](O)[C@H](O)[C@H](O)CO [D-gluconic acid, reference compound]
change in blood calcium level [1]: not observed to have significant increases in the blood calcium level

O=C([O-])[O-].[Ca+2] [calcium carbonate, reference compound]
change in blood calcium level [1]: did not show any increase in the blood calcium level
change in blood calcium level [2]: did not show any increase in the blood calcium level
Ca level in blood, 0 min [3]: 4.67 ± 0.297 mg/dL
Ca level in blood, 2 hrs [3]: 4.58 ± 0.143 mg/dL
Ca level in blood, 4 hrs [3]: 4.82 ± 0.189 mg/dL
change in blood calcium level [3]: did not show any increase in the blood calcium level

calcium D-gluconate [reference compound]
absorption rate of calcium in the digestive tract, fourth week ([4]; fourth week, calcium-deficient diet mice): 59.8%
absorption rate of calcium in the digestive tract, second week ([4]; second week, calcium-deficient diet mice): 74.2%
Femur Ash content ([4]; femur, 4 weeks): 25 ± 1.3 mg
Femur Ca content ([4]; femur, 4 weeks): 8.7 ± 0.42 mg
Femur P content ([4]; femur, 4 weeks): 4.7 ± 0.21 mg
Femur Weight ([4]; femur, 4 weeks): 46 ± 2.1 mg
Tibia Ash content ([4]; tibia, 4 weeks): 23 ± 1.2 mg
Tibia Ca content ([4]; tibia, 4 weeks): 8.3 ± 0.34 mg
Tibia P content ([4]; tibia, 4 weeks): 4.3 ± 0.16 mg
Tibia Weight ([4]; tibia, 4 weeks): 44 ± 1.1 mg
absorption rate of calcium in the digestive tract, fourth week ([5]; fourth week, ovary-excised mice on calcium-deficient diet): 45.1%
absorption rate of calcium in the digestive tract, second week ([5]; second week, ovary-excised mice on calcium-deficient diet): 61.1%
Femur Ash content ([5]; femur, 4 weeks): 27 ± 0.4 mg
Femur Ca content ([5]; femur, 4 weeks): 9.4 ± 0.18 mg
Femur P content ([5]; femur, 4 weeks): 4.8 ± 0.14 mg
Femur Weight ([5]; femur, 4 weeks): 50 ± 1.2 mg
Tibia Ash content ([5]; tibia, 4 weeks): 24 ± 0.5 mg
Tibia Ca content ([5]; tibia, 4 weeks): 8.6 ± 0.21 mg
Tibia P content ([5]; tibia, 4 weeks): 4.4 ± 0.08 mg
Tibia Weight ([5]; tibia, 4 weeks): 46 ± 1.0 mg

O=C(O)[C@H](O)[C@@H](O)[C@@H](O)CO [L-arabonic acid]
share of the total amount of administration remained in the cecum and colon ([6]; after 24 hours, oral 5 mmol/kg): About 30%
absorption in the small intestine ([6]; from 2 to 6 hours after oral administration): hardly absorbed in the small intestine
Residual ratio after administration, Cecum, After 2 hrs ([6]; oral 5 mmol/kg L-arabonic acid, cecum, 2 hrs): 47.7 ± 3.39%
Residual ratio after administration, Cecum, After 6 hrs ([6]; oral 5 mmol/kg L-arabonic acid, cecum, 6 hrs): 60.6 ± 3.26%
Residual ratio after administration, Cecum, After 24 hrs ([6]; oral 5 mmol/kg L-arabonic acid, cecum, 24 hrs): 25.9 ± 7.81%
Residual ratio after administration, Colon, After 2 hrs ([6]; oral 5 mmol/kg L-arabonic acid, colon, 2 hrs): 0.1 ± 0.14%
Residual ratio after administration, Colon, After 6 hrs ([6]; oral 5 mmol/kg L-arabonic acid, colon, 6 hrs): 7.4 ± 2.35%
Residual ratio after administration, Colon, After 24 hrs ([6]; oral 5 mmol/kg L-arabonic acid, colon, 24 hrs): 1.9 ± 0.37%
Residual ratio after administration, Small intestine, After 2 hrs ([6]; oral 5 mmol/kg L-arabonic acid, small intestine, 2 hrs): 23.0 ± 3.71%
Residual ratio after administration, Small intestine, After 6 hrs ([6]; oral 5 mmol/kg L-arabonic acid, small intestine, 6 hrs): 3.3 ± 2.50%
Residual ratio after administration, Small intestine, After 24 hrs ([6]; oral 5 mmol/kg L-arabonic acid, small intestine, 24 hrs): 0.8 ± 0.20%
Residual ratio after administration, Stomach, After 2 hrs ([6]; oral 5 mmol/kg L-arabonic acid, stomach, 2 hrs): 0%
Residual ratio after administration, Stomach, After 6 hrs ([6]; oral 5 mmol/kg L-arabonic acid, stomach, 6 hrs): 0%
Residual ratio after administration, Stomach, After 24 hrs ([6]; oral 5 mmol/kg L-arabonic acid, stomach, 24 hrs): 0%
L-arabonic acid in excreted feces ([6]; oral 5 mmol/kg, feces up to 24 hours): detected from the excreted feces
unaltered L-arabonic acid in urine ([6]; oral 5 mmol/kg, urine up to 24 hours): detected from the urine, even in small amount
level of L-arabonic acid in the blood ([6]; throughout the test period, oral 5 mmol/kg): below the detection limit
change in blood calcium level [1]: dose-dependent and significant increases in the blood calcium level; also recorded: calcium absorption was accelerated by L-arabonic acid, and the effect was rapidly acting and continuous
LD50 [7]: about 10 g/kg

O=C([O-])[C@H](O)[C@@H](O)[C@@H](O)CO.[Na+] [sodium L-arabonate]
Ca level in blood, 0 min [3]: 4.30 ± 0.121 mg/dL
Ca level in blood, 2 hrs [3]: 5.59 ± 0.232 mg/dL
Ca level in blood, 4 hrs [3]: 5.62 ± 0.212 mg/dL
change in blood calcium level [3]: significant increase in the blood calcium level
